Results from patent US8633204B2 (Pfizer Inc., priority 2006, dated 2014).

Key:
[1] = test system: PI3-K in BT20 cells (phosphorylation of AKT at serine 473); assay: PI3-Kα Cellular Assay (AKT Ser473 phosphorylation ELISA in BT20 cells); assay type: cell-based, human; details: Homo sapiens, BT-20, pAKT Ser473 ELISA, 1 hour incubation
Method in brief: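 Cells seeded overnight in 0.5% FBS, then exposed 1 h at 37 °C to an 11-concentration 1:3 dilution series, in duplicate.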

[2] = test system: phosphorylation of AKT on S473 in SKOV3 tumors; assay: In vivo target modulation study, SKOV3 tumors; set-up: species or system mouse
Experimental: In vivo target modulation studies to determine the effect of Compound 152 treatment on the phosphorylation of AKT on S473 by ELISA and S6 on S235/S236 by IHC were performed. Resected tumors were frozen on dry ice and pulverized using the FAST PREP instrument (Qbiogene). Briefly, frozen tumors were placed in Fast Prep matrix tubes, cold lysis buffer [20 mM HEPES (pH 7.5), 150 mM NaCl, 1.0 mM sodium EDTA, 1% Triton X-100, 2.5 mM sodium pyrophosphate, 1 mM sodium orthovanadate, 1 μg/ml leupeptin, and 1 mM PMSF] was added and samples were centrifuged for 5 sec, mixed and process repeated two more times. Samples were centrifuged in a cold refrigerated Eppendorf centrifuge at 14,000 RPM for 20 min. Supernatant was collected and total and phosphoAKT (S473) protein levels determined by ELISA. The extent of phosphorylation in tumors resected from treated animals was compared with that in tumors resected from vehicle-treated animals at the same time point. Plasma samples, obtained by centrifuging individual blood samples at 3000×g for 5 min at 4° C. in an Eppendorf 5417R centrifuge, were stored at −80° C. until they could be analyzed for drug concentration. Briefly, plasma samples (50 μl) or Compound 152 standards in mouse plasma were mixed with acetonitrile […]) and injected onto a LC/MS/MS system where separation occurred on a C-18 SB phenyl (5 μM, 2.1×50 mm, Agilent) reverse-phase high-performance liquid chromatography column. The amount of inhibitor and the internal standard (0.5 μM buspirone) in each mouse plasma sample was quantified based on standard curves generated using known amounts of compound. […] Time course and dose response of in vivo target modulation and plasma inhibitor concentrations were determined post last dose at the end of the efficacy study described above and data are summarized in Table 4.

COc1ccc(-c2cc3c(C)nc(N)nc3n([C@H]3CC[C@H](O)CC3)c2=O)cn1 [Compound 152, 2-amino-8-(trans-4-hydroxycyclohexyl)-6-(6-methoxypyridin-3-yl)-4-methylpyrido[2,3-d]pyrimidin-7(8H)-one]
IC50 [1]: 3.6 nM | p-Akt/Akt(%) ([2]; SKOV3, 0.5 mg/kg, 3 h post last dose): 30 ± 3% | p-Akt/Akt(%) ([2]; SKOV3, 0.5 mg/kg, 7 h post last dose): 55 ± 4% | p-Akt/Akt(%) ([2]; SKOV3, 0.5 mg/kg, 24 h post last dose): 147 ± 21% | p-Akt/Akt(%) ([2]; SKOV3, 1 mg/kg, 3 h post last dose): 27 ± 6% | p-Akt/Akt(%) ([2]; SKOV3, 1 mg/kg, 7 h post last dose): 48 ± 17% | p-Akt/Akt(%) ([2]; SKOV3, 1 mg/kg, 24 h post last dose): 124 ± 10% | p-Akt/Akt(%) ([2]; SKOV3, 2 mg/kg, 3 h post last dose): 23 ± 5% | p-Akt/Akt(%) ([2]; SKOV3, 2 mg/kg, 7 h post last dose): 30 ± 13% | p-Akt/Akt(%) ([2]; SKOV3, 2 mg/kg, 24 h post last dose): 126 ± 20% | inhibition of pAKT at S473 ([2]; SKOV3 tumors in vivo): dose dependent inhibition
